Test results published in US6362369B1, “Phthalic acid diamide derivatives fluorine-containing aniline compounds as starting material, agricultural and horticultural insecticides, and a method for application of the insecticides” (Nihon Nohyaku Co., Ltd., priority 1997, dated 2002).

System: diamondback moth (Plutella xylostella)
Assay: Insecticidal effect on diamondback moth (Test Example 1)
Type: in vivo
Conditions: for Insecticidal effect on diamondback moth (Test Example 1), judged grade: mortality judged according to the criterion shown in Test Example 1; for Insecticidal effect, Test Example 1 / Insecticidal effect (Test Example 1), judged from mortality: diamondback moth; for Insecticidal effect (Test Example 1), judged from mortality: judged by the criterion of Test Example 1
Protocol: Insecticidal effect on diamondback moth (Plutella xylostella) Adult diamondback moths were released and allowed to oviposit on a Chinese cabbage seedling. […] After air-drying, it was allowed to stand in a room thermostated at 25° C. Six days after the immersion, the hatched insects were counted. The mortality was calculated according to the following equation and the insecticidal effect was judged according to the criterion shown below. The test was carried out with triplicate groups of 10 insects. [table]

[1] = mortality judged by criterion of Test Example 1
[2] = judged by the mortality criterion of Test Example 1

Cc1ccc(Cl)cc1NC(=O)c1cc([N+](=O)[O-])ccc1C(=O)NC(C)C [compound 738]
Insecticidal effect on diamondback moth (Test Example 1), judged grade: D (79-50)

Cc1cc(C(F)(F)C(F)(F)F)ccc1NC(=O)c1cccc(Cl)c1C(=O)N[C@@H](CO)c1ccccc1 [compound 1442]
Insecticidal effect, Test Example 1 [1]: A (100)

Cc1cc(C(F)(F)C(F)(F)F)ccc1NC(=O)c1ccccc1C(=O)NCC(O)Cc1ccccc1 (stereo not drawn) [compound 1398]
Insecticidal effect, Test Example 1 [1]: A (100)

Cc1ccc(CNC(=O)c2c(Cl)cccc2C(=O)Nc2ccc(C(F)(F)C(F)(F)F)cc2C)cc1 [compound 1341]
Insecticidal effect, Test Example 1 [1]: A (100)

Cc1cc2c(cc1NC(=O)c1cccc(Cl)c1C(=O)NC(C)C)OC(F)(F)O2 [compound 1661]
Insecticidal effect (Test Example 1), judged from mortality: A (100)

CC(C)NC(=O)c1cccc(Cl)c1C(=O)Nc1ccc(C(F)(F)C(F)(F)C(F)(F)C(F)(F)F)cc1 [compound 199]
Insecticidal effect, Test Example 1 [2]: A (100)

Cc1cc(Cl)ccc1NC(=O)c1c(C#N)cccc1C(=O)NC(C)C [compound 745]
Insecticidal effect on diamondback moth (Test Example 1), judged grade: D (79-50)

Cc1cc(Sc2ccc(Cl)cc2)ccc1NC(=O)c1c(I)cccc1C(=O)NC(C)C [compound 463]
Insecticidal effect on diamondback moth (Test Example 1), judged grade: A (100)

Cc1ccc(Br)cc1NC(=O)c1cccc([N+](=O)[O-])c1C(=O)NC(C)C [compound 672]
Insecticidal effect on diamondback moth (Test Example 1), judged grade: A (100)

Cc1cc(NC(=O)c2cccc([N+](=O)[O-])c2C(=O)NC(C)C)c(F)cc1Cl [compound 657]
Insecticidal effect on diamondback moth (Test Example 1), judged grade: D (79-50)

CC(C)NC(=O)c1ccc(Cl)cc1C(=O)Nc1ccc(F)c(F)c1F [compound 194]
Insecticidal effect, Test Example 1 [2]: A (100)

CC(C)NC(=O)c1c(Cl)cccc1C(=O)Nc1ccc(OC(F)F)cc1 [compound 92]
Insecticidal effect, Test Example 1 [2]: A (100)

Cc1cc(C(F)(F)C(F)(F)F)ccc1NC(=O)c1ccccc1C(=O)NC(CO)c1ccccc1 (stereo not drawn) [compound 1379]
Insecticidal effect, Test Example 1 [1]: A (100)

Cc1cc(C(F)(F)C(F)(F)F)ccc1NC(=O)c1cccc(Cl)c1C(=O)NCc1ccc(Cl)cc1Cl [compound 1349]
Insecticidal effect, Test Example 1 [1]: A (100)

CCCONC(=O)c1cccc(Cl)c1C(=O)Nc1ccc(C(F)(F)C(F)(F)F)cc1C [compound 1328]
Insecticidal effect, Test Example 1 [1]: A (100)

Cc1cc(C(F)(F)C(F)(F)F)ccc1NC(=O)c1cccc(I)c1C(=O)N1CCCCC1 [compound 1082]
Insecticidal effect, Test Example 1 [1]: A (100)

CC(C)NC(=O)c1c(C(=O)Nc2cc(F)ccc2F)cccc1[N+](=O)[O-] [compound 640]
Insecticidal effect on diamondback moth (Test Example 1), judged grade: A (100)

Cc1cc(C(F)(F)C(F)(F)F)ccc1NC(=O)c1c(Cl)cccc1C(=O)NC(C)c1ccc(Cl)cc1 (stereo not drawn) [compound 1367]
Insecticidal effect, Test Example 1 [1]: A (100)

CCN(CC)C(=O)c1c(I)cccc1C(=O)Nc1ccc2oc(-c3ccc(C(F)(F)F)cc3)nc2c1 [compound 1175]
Insecticidal effect, Test Example 1 [1]: A (100)

Cc1cc(C(F)(F)C(F)(F)F)ccc1NC(=O)c1cccc(Cl)c1C(=O)NCCc1ccccc1 [compound 1319]
Insecticidal effect, Test Example 1 [1]: A (100)

CC(C)NC(=O)c1c(C(=O)Nc2ccc(F)c(F)c2F)cccc1[N+](=O)[O-] [compound 645]
Insecticidal effect on diamondback moth (Test Example 1), judged grade: A (100)

CC(C)NC(=O)c1c(C(=O)Nc2cccc(F)c2)cccc1[N+](=O)[O-] [compound 593]
Insecticidal effect on diamondback moth (Test Example 1), judged grade: A (100)

CNC(=O)c1c(C(=O)Nc2cc(Cl)ccc2C)cccc1[N+](=O)[O-] [compound 3]
Insecticidal effect, Test Example 1 [2]: C (89-80)

Cc1cc(C(F)(F)C(F)(F)F)ccc1NC(=O)c1c(I)cccc1C(=O)NC1CC1 [compound 1025]
Insecticidal effect, Test Example 1 [1]: A (100)

Cc1ccc(CNC(=O)c2cccc(Cl)c2C(=O)Nc2ccc(C(F)(F)C(F)(F)F)cc2C)cc1 [compound 1342]
Insecticidal effect, Test Example 1 [1]: A (100)

CC(C)NC(=O)c1c(C(=O)Nc2ccccc2C(F)(F)F)cccc1[N+](=O)[O-] [compound 608]
Insecticidal effect on diamondback moth (Test Example 1), judged grade: A (100)

Cc1cc(C(F)(C(F)(F)F)C(F)(F)F)ccc1NC(=O)c1cccc([S+]([O-])C(F)(F)F)c1C(=O)NC(C)C (stereo not drawn) [compound 1805]
Insecticidal effect (Test Example 1), judged from mortality: A (100)

CC(C)NC(=O)c1cccc(I)c1C(=O)Nc1cc(Cl)c(OC(F)F)c(Cl)c1 [compound 449]
Insecticidal effect on diamondback moth (Test Example 1), judged grade: A (100)

Cc1cc(C(F)(F)C(F)(F)F)ccc1NC(=O)c1cccc([S+]([O-])C(F)(F)F)c1C(=O)NC(C)C (stereo not drawn) [compound 1804]
Insecticidal effect (Test Example 1), judged from mortality: A (100)

CCN(CC)C(=O)c1c(I)cccc1C(=O)Nc1ccc2nc(-c3ccccc3C(F)(F)F)oc2c1 [compound 1178]
Insecticidal effect, Test Example 1 [1]: A (100)

CC(C)NC(=O)c1ccccc1C(=O)Nc1ccccc1 [compound 20]
Insecticidal effect, Test Example 1 [2]: A (100)

Cc1cc(C(F)(F)C(F)(F)F)ccc1NC(=O)c1c(Cl)cccc1C(=O)NC(C)c1ccccc1 (stereo not drawn) [compound 1322]
Insecticidal effect, Test Example 1 [1]: A (100)

Cc1cc(OC(F)F)ccc1NC(=O)c1c(F)cccc1C(=O)NC(C)C [compound 559]
Insecticidal effect on diamondback moth (Test Example 1), judged grade: A (100)

COCCNC(=O)c1c(C(=O)Nc2cc(Cl)ccc2C)cccc1[N+](=O)[O-] [compound 871]
Insecticidal effect on diamondback moth (Test Example 1), judged grade: A (100)

CC(C)NC(=O)c1c(I)cccc1C(=O)Nc1ccc(C(F)(C(F)(F)F)C(F)(F)F)cc1-c1ccccc1 [compound 1767]
Insecticidal effect (Test Example 1), judged from mortality: A (100)

Cc1cc(C(F)(F)C(F)(F)F)ccc1NC(=O)c1cccc(Cl)c1C(=O)NCCOc1ccccc1Cl [compound 1368]
Insecticidal effect, Test Example 1 [1]: A (100)

CC(C)NC(=O)c1cccc(Cl)c1C(=O)Nc1cc(Cl)c(OC(F)F)c(Cl)c1 [compound 227]
Insecticidal effect, Test Example 1 [2]: A (100)

Cc1ccc(Cl)cc1NC(=O)c1cccc([N+](=O)[O-])c1C(=O)NC1CCC1 [compound 854]
Insecticidal effect on diamondback moth (Test Example 1), judged grade: A (100)

CCc1ccc(F)cc1NC(=O)c1cccc([N+](=O)[O-])c1C(=O)NC(C)C [compound 677]
Insecticidal effect on diamondback moth (Test Example 1), judged grade: A (100)

CC(C)NC(=O)c1c(C(=O)Nc2cc(Cl)c(OC(F)F)c(Cl)c2)cccc1[N+](=O)[O-] [compound 659]
Insecticidal effect on diamondback moth (Test Example 1), judged grade: A (100)

Cc1cc(Oc2cccc(C(F)(F)F)c2)ccc1NC(=O)c1c(I)cccc1C(=O)NC(C)C [compound 458]
Insecticidal effect on diamondback moth (Test Example 1), judged grade: A (100)

CC(C)NC(=O)c1c(C(=O)Nc2ccccc2F)cccc1[N+](=O)[O-] [compound 592]
Insecticidal effect on diamondback moth (Test Example 1), judged grade: A (100)

C#CCNC(=O)c1c(C(=O)Nc2ccc(OC(F)F)cc2C)cccc1[N+](=O)[O-] [compound 870]
Insecticidal effect on diamondback moth (Test Example 1), judged grade: A (100)

Cc1cc(C(F)(F)C(F)(F)F)ccc1NC(=O)c1c(Cl)cccc1C(=O)NCc1ccc(OC(F)(F)F)cc1 [compound 1577]
Insecticidal effect (Test Example 1), judged from mortality: A (100)

CC(C)NC(=O)c1cccc(Cl)c1C(=O)Nc1cccc(Cl)c1Cl [compound 208]
Insecticidal effect, Test Example 1 [2]: A (100)

CC(C)NC(=O)c1c(C(=O)Nc2cc(Cl)cc(Cl)c2)cccc1[N+](=O)[O-] [compound 637]
Insecticidal effect on diamondback moth (Test Example 1), judged grade: A (100)

CCC(CC)NC(=O)c1c(C(=O)Nc2ccc(OC(F)F)cc2C)cccc1[N+](=O)[O-] [compound 845]
Insecticidal effect on diamondback moth (Test Example 1), judged grade: A (100)

Cc1cc(C(F)(F)C(F)(F)F)ccc1NC(=O)c1c(Cl)cccc1C(=O)NCCOc1ccc(Cl)cc1 [compound 1373]
Insecticidal effect, Test Example 1 [1]: A (100)

CC(C)NC(=O)c1c(C(=O)Nc2cccc(Br)c2)cccc1[N+](=O)[O-] [compound 590]
Insecticidal effect on diamondback moth (Test Example 1), judged grade: A (100)

Cc1c(NC(=O)c2c(Cl)cccc2C(=O)NC(C)C)cccc1OC(F)(F)C(F)Cl (stereo not drawn) [compound 240]
Insecticidal effect, Test Example 1 [2]: A (100)

CC(C)NC(=O)c1c(C(=O)Nc2cccc(F)c2F)cccc1[N+](=O)[O-] [compound 638]
Insecticidal effect on diamondback moth (Test Example 1), judged grade: B (99-90)

C=CCNC(=O)c1c(C(=O)Nc2cc(Cl)ccc2C)cccc1[N+](=O)[O-] [compound 866]
Insecticidal effect on diamondback moth (Test Example 1), judged grade: D (79-50)

Cc1cc(OC(F)F)ccc1NC(=O)c1c(I)cccc1C(=O)NCc1ccccc1 [compound 1431]
Insecticidal effect, Test Example 1 [1]: A (100)

CCc1cc(I)ccc1NC(=O)c1cccc(I)c1C(=O)NC(C)C [compound 919]
Insecticidal effect on diamondback moth (Test Example 1), judged grade: A (100)

Cc1ccc(Cl)cc1NC(=O)c1c(C(=O)NC(C)C)cccc1C(F)(F)F [compound 766]
Insecticidal effect on diamondback moth (Test Example 1), judged grade: A (100)

Cc1ccc(NC(=O)c2cccc([N+](=O)[O-])c2C(=O)NC(C)C)cc1 [compound 601]
Insecticidal effect on diamondback moth (Test Example 1), judged grade: A (100)

Cc1cc(C(F)(F)C(F)(F)F)ccc1NC(=O)c1c(Cl)cccc1C(=O)NCc1ccccc1F [compound 1469]
Insecticidal effect (Test Example 1), judged from mortality: A (100)

CSc1ccccc1NC(=O)c1cccc([N+](=O)[O-])c1C(=O)NC(C)C [compound 622]
Insecticidal effect on diamondback moth (Test Example 1), judged grade: A (100)

Cc1c(Cl)ccc(NC(=O)c2c(I)cccc2C(=O)NC(C)C)c1C [compound 434]
Insecticidal effect, Test Example 1 [2]: A (100)

Cc1cc(SC(C)C)ccc1NC(=O)c1c(I)cccc1C(=O)NC(C)C [compound 462]
Insecticidal effect on diamondback moth (Test Example 1), judged grade: A (100)

Cc1cc(OC(C)C)ccc1NC(=O)c1c(I)cccc1C(=O)NC(C)C [compound 442]
Insecticidal effect, Test Example 1 [2]: A (100)

CC(C)NC(=O)c1c(Cl)cccc1C(=O)Nc1ccc(C(C)(C)C)cc1 [compound 88]
Insecticidal effect, Test Example 1 [2]: A (100)

Cc1cc(Cl)ccc1NC(=O)c1cccc(C#N)c1C(=O)NC(C)C [compound 744]
Insecticidal effect on diamondback moth (Test Example 1), judged grade: C (89-80)
